The values that follow come from patent US20100323990A1, “SHIP 1 MODULATOR PRODRUGS” (THE UNIVERSITY OF BRITISH COLUMBIA, priority 2006, published 2010).

Data set [1] in a line: Initial toxicology studies. In kind it is in vivo. Conditions: data not shown. From the text: A novel paradigm for inhibiting PI3K signaling through activation of the phosphatases that negatively regulate this pathway is provided. SHIP is a particularly good target for immune/hematopoietic disorders because of its restricted expression to hematopoietic cells. Because the relative activity of phosphatases present in a cell will influence the efficacy of kinase inhibitors, as discussed by Knight and Shokat, SHIP agonists may also be used to potentiate the activation of PI3K inhibitors and promote tissue targeting of PI3K inhibitors to the ematopoietic/immune cell compartment.

For another data set, the system named is J774.1a macrophage cells. As to the kind of experiment: Macrophage TNF-α NO assay (Assay 3), Griess reagent. Also: key: a ‘+’ indicates a positive result for desired activity; a ‘−’ indicates a negative result for desired activity. Type of data set: cell-based. Conditions: 10 μg/ml test compound, LPS, supernatants after 24 hr. The method, boiled down:
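J774.1a macrophages pretreated 40 min with 10 μg/mL compound, then LPS (100 ng/mL for TNF-α); TNF-α by ELISA in supernatants at 2 and 5 h, NO by Griess at 24 h. Mast cells IgE-loaded (anti-DNP), compound 30 min, DNP-HSA challenge; calcium flux by fura-2 spectrofluorometry, signalling by immunoblot.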
(Nitrite, measured by Griess reagent, commonly stands in for NO production.)

The next data set concerns MM cell lines. As to the kind of experiment: In vitro Multiple Myeloma (MM) assay (Assay 7). As to Assay 7: In vitro Multiple Myeloma (MM) assay, desired activity: key: a ‘+’ indicates a positive result for desired activity; a ‘−’ indicates a negative result for desired activity. The following applies: for Assay 7: In vitro Multiple Myeloma (MM) assay, desired activity: viable cell number by trypan blue, [3H]-thymidine. In kind it is cell-based. Here is the method: Assay 1) In vitro testing in a SHIP enzyme assay. Test compounds were dissolved in a suitable solvent (e.g. EtOH, DMSO and others) and diluted into aqueous buffer (20 mM Tris HCl, pH 7.5 and 10 mM MgCl2). SHIP enzyme assays were performed in 96-well microtitre plates with 10 ng of enzyme/well in a total volume of 25 μL of 20 mM Tris HCl, pH 7.5 and 10 mM MgCl2. SHIP enzyme was incubated with test extracts (provided in solvent) or vehicle for 15 min at 23° C. before the addition of 100 μM inositol-1,3,4,5-tetrakisphosphate (Echelon Biosciences Inc, Salt Lake City, Utah). After 20 min at 37° C. and the amount of inorganic phosphate released assessed by the addition of Malachite Green reagent and absorbance measurement at 650 nm. Assay 2) Macrophage TNF-α production. J774.1a macrophage cells were treated with 10 μg/mL of test compound dissolved in solvent (e.g. cyclodextran) for 40 minutes prior to the addition of 100 ng/mL LPS. Culture supernatants were collected after 2 hr and 5 hr for TNF-α determination by ELISA. Assay 3) Macrophage TNF-α NO assay. J774.1a macrophage cells were treated with 10 μg/ml of test compound dissolved in solvent for 40 minutes prior to the addition of LPS. Culture supernatants were collected after 24 hr. for determination of NO concentration using the Griess reagent. Assay 4) Stimulation of mast cells by FcεRI crosslinking. Mast cells were pre-loaded overnight in BMMC medium lacking IL-3 with 0.1 μg/ml anti-DNP IgE (SPE-7, Sigma, Oakville, Ont). For calcium flux measurements, cells were incubated with 2 μM fura 2-acetoxymethyl ester (Molecular Probes, Eugene, Oreg.) in Tyrode's buffer at 23° C. for 45 min. Cells were then washed and incubated in the presence of the test compound 30 min prior to stimulation with the indicated concentration of DNP-human serum albumin (DNP-HSA). Calcium influx was monitored by spectrofluorometry as described previously. For analysis of intracellular signaling, cells were pre-loaded with anti-DNP IgE as above, pre-treated with the test compound for 30 min at 37° C. and stimulated with 20 ng/ml DNP-HSA for 5 min. Total cell lysates were then prepared and analyzed for phospho-PKB, phospho-p38^MAPK, phospho-MAPK, Grb-2 (Cell Signalling, Mississauga, Ont) and SHIP^6 by immunoblot analysis. Assay 5) Mouse acute cutaneous anaphylaxis model. 6-8 week old CD1 mice (University of British Columbia Animal Facility, Vancouver, BC) were sensitized to the hapten DNP by cutaneous application of 25 μL of 0.5% dinitrofluorobenzene (DNFB) (Sigma, Oakville, Ont) in acetone to the shaved abdomen of mice for two consecutive days. 24 hrs later, test substances (dissolved in 10 μL of 1:2 DMSO:MeOH) were painted on the right ear while the left ear received vehicle control. 30 min after drug application, DNFB was applied to both ears to induce mast cell degranulation. A 6 mm punch was taken from the ear and immediately frozen on dry ice for subsequent determination of neutrophil myeloperoxidase (MPO) activity. Assay 6) Mouse endotoxemia model. 6-8 week old C57B16 mice (VCHRI Mammalian Model of Human Disease Core Facility, Vancouver, BC) were orally administered the test compound 30 min prior to an IP injection of 2 mg/kg of LPS (E. Coli serotype 0111:B4, Sigma, Oakville, Ont). Blood was drawn 2 hrs later for determination of plasma TNFα by ELISA. Assay 7) In vitro Mulitple Myeloma (MM) assay. The ability of SHIP activators to reduce tumor cell survival was assessed in MM cell lines treated with the test compound. The lines OPM1, OPM2, MM.1S and RPMI 8226 were plated at a density of 1×10^5 cells/mL in 200 μL of medium with various concentrations of the test compound, and viable cell numbers were determined on day 3 and day 5 by trypan blue exclusion. The lines RPMI 8226 and U266 were plated at a density of 1×10^6 cells/mL in 250 μL of medium with various concentrations of the test compound. At day 4, the medium of each culture was replaced by fresh medium containing the same concentration of test compound. […]

For `Cc1cc(O)cc2c1[C@]1(C)CCC3C(C)(C)CCC[C@]3(C)[C@H]1C2` (stereo partly drawn) [Compound 100], in data set [1], the “peripheral blood cell counts and bone marrow progenitor numbers” value was “do not significantly affect”; the tolerability entry is “well tolerated”. The “Assay 3: Macrophage NO assay, desired activity” value in the data set with J774.1a macrophage cells is “+”. Further, the “MM proliferation / tumor cell survival, comparison” value in the data set on MM cell lines (OPM1, OPM2, MM.1S, RPMI 8226, U266, trypan blue) is on record as “inhibits MM proliferation at lower concentrations than AQX-016A”. Moreover, the “Assay 7: In vitro Multiple Myeloma (MM) assay, desired activity” value with MM cell lines was “+”.

Take `Cc1cc(O)c(O)c2c1[C@]1(C)CCC3C(C)(C)CCC[C@]3(C)[C@H]1C2` (stereo partly drawn) [AQX-016A]: in data set [1], the “peripheral blood cell counts and bone marrow progenitor numbers” value is “do not significantly affect”; the tolerability entry is reported as “well tolerated”. In addition, the “Assay 3: Macrophage NO assay, desired activity” value in the data set with J774.1a macrophage cells is “+”. For the same compound, the “Assay 7: In vitro Multiple Myeloma (MM) assay, desired activity” value in the data set with MM cell lines was “+”.
